Structures can show the parent of a compound that is named as a salt.
How the values were obtained:
Format in all cases: physicochemical
[1] = Crystallization of the Citrate Salt (Form A exposed to solvent systems under the conditions of Table 9): form(s) obtained
From the text: In other particular embodiments, solvents such as ethanol, methanol/heptane, MEK/water, n-propanol, isopropanol, isopropanol/water, acetonitrile/water, or methanol may be used to crystallize Form B. More particularly, Form B may be created by taking samples of Form A and exposing them to one of the solvent systems listed above. […] In each instance, Form A of the Citrate Salt is exposed to a solvent or solvent system under the particular conditions listed in Table 9 to generate the particular form(s) or amorphous Citrate Salt.

[2] = Prolonged exposure to fixed relative humidity or rinsing with water, XRPD before and after; conditions: for crystal form by XRPD after exposure to a relative humidity of 97.5%: month long exposure, ambient temperature
[3] = Thermal gravimetric analysis (TGA); conditions: for TGA weight loss of the transition / TGA weight loss transition, interpolated beginning temperature / TGA weight loss transition, temperature of maximum rate of weight loss: sample of the single form (Form H formed from Form E sample); for TGA weight loss transition, interpolated beginning temperature / TGA weight loss transition, temperature of maximum rate of weight loss: ±3° C.
Experimental: Measurements utilizing thermal gravimetric analysis (TGA) are carried out on a T.A. instruments TGAQ500 analyzer. Mass calibration is performed with 10 and 100 mg certified masses. Temperature calibration is performed with Alumel® and nickel standards (Curie points of respectively 154° C. and 354° C.). Samples are exposed to a constant nitrogen stream of 60 ml/min, and temperature ranges from room temperature to 350° C. at a 5° C./min rate. The quantity of product tested is between 2 and 13 mg. The sample is deposited in an open aluminum sample pan, which is itself placed in a platinum pan. The temperatures identified from TGA scans of a particular sample are accurate to within ±3° C. Simultaneous TGA and DSC measurements are carried out using a […] thermal analysis system produced by the […] corporation. A liquid nitrogen cooling system makes it possible to work at temperatures below 20° C. The emitted gases, upon sample heating, are carried by a transfer capillary tube to a Pfeiffer mass spectrometer, the capillary tube heated to 150° C. The mass spectrometer can analyze molecular fragments at <<m/e>> ratios between 1 and 200 uma. A sample with a mass between 1 and 27 mg is contained in an open concave aluminum sample pan (75 μL capacity) exposed to a nitrogen stream. The sample is heated at a rate of 1 or 5° C./min.

[4] = Water sorption/desorption cycling (dynamic vapor sorption, DVS) at 25° C., with XRPD before and after; conditions: for XRPD before and after water sorption/desorption cycling: two consecutive cycles, 0% to 90% relative humidity
Experimental: Water sorption measurements are performed on a DVS-1 automated gravimetric vapor sorption analyser (Surface Measurement Systems Ltd., London, UK). The DVS-1 measures the uptake and loss of vapor gravimetrically using a Cahn D200 recording ultra-microbalance with a mass resolution of ±0.1 μg. The relative humidity around the sample is controlled by mixing saturated and dry carrier gas streams using mass flow controllers. The temperature is maintained within ±0.1° C. by enclosing the entire system in a temperature-controlled incubator. A sample size between 15 and 20 mg is used. In general, the error in % (w/w) identified in a tested sample is ±0.1% (w/w).
Two protocols are utilized to operate the DVS. In one protocol, a sample is dried at 0% relative humidity (RH) to remove any surface water present and establish a dry, baseline mass. Next, the sample is exposed to the following relative humidity profile: 0%, 10%, 20%, 30%, 40%, 50%, 60%, 70%, 80%, 90%, 80%, 70%, 60%, 50%, 40%, 30%, 20%, 10%, 0%. In some instances, this profile is repeated, yielding 4 sets of data going up and down in RH. In another protocol, the sample is first equilibrated at 40% RH, then it was exposed to the following relative humidity profile: 40%, 50%, 60%, 70%, 80%, 90%, 100%, 90%, 80%, 70%, 60%, 50% 40% 30%, 20% 10%, 0%, 10%, 20%, 30%, 40%. […] If equilibrium state is not reached, the change in relative humidity took place automatically after 360 or 600 minutes. From the complete moisture sorption and desorption profile, an isotherm is calculated using the DVS Advanced Analysis Suite v3.6. All experiments were performed at 25° C.

[5] = Differential scanning calorimetry (DSC)
Experimental: Differential scanning calorimetry (DSC) analyses are performed using a T.A Instruments Q1000 thermal analyser. Analyses are carried out using nitrogen purge gas flowing at an average rate of 50 ml/min. A mechanical compressor cools the system, and equilibrates the instruments being used at ambient temperature between analyses. […] Energy calibration is performed with a certified indium calibrator (melting enthalpy of 28.45 J/g), applying a heating rate of 5° C./min. The temperatures identified from DSC scans of a particular sample are accurate to within ±3° C. […] Modulated temperature differential scanning calorimetry (MTDSC) is also used since deconvolution of the total heat flow into reversing and non-reversing heat flows allows the transitions to be easily identified. The samples were submitted to the same experimental temperature program: after the equilibration of the sample at −5° C., the samples were heated through a modulated program from −5° C. to 210° C. at a rate of 1° C./min. […] Experiments are performed using crimped aluminium sample pans or open pans in some cases. The quantity of product analysed is typically between 2 and 13 mg.

[6] = Controlled temperature (isothermal) X-ray powder diffraction: thermal stability of the crystalline form; conditions: dry nitrogen; for form conversion as the temperature is raised (isothermal XRPD): ambient to 210° C.
Experimental: X-ray powder diffraction (XRPD) is performed on various samples of the Citrate Salt using one of three instruments. XRPD measurements with Instrument 1 utilize a Siemens-Bruker D5000 Matic powder diffractometer with a Bragg-Brentano (vertical θ-2θ configuration) parafocusing geometry. X-rays are produced from a sealed cobalt anode running at 40 kV and 30 mA. Two lines are typically emitted: CoKα1 (λ=1.7890 Å) and CoKα2 (λ=1.7929 Å). An iron β-filter limits the CoKβ (λ=1.6208 Å) radiation to about 1% of the diffracted beam at the detector. The primary beam passes through a parallel plate collimator (0.2 mm Soller slits), then through a divergence slit (0.2 mm). Diffracted X-rays are detected with a Braun 50 M multichannel linear detector having a 10°-wide detection window in angle 2θ. Scans are performed from 1.5° to 50.0° in 2θ, the scan time being 10 to 40 seconds per degree in 2θ. The error in the 2θ locations are typically within ±0.10 degrees.
In Instrument 3, XRPD measurements are performed at different temperatures to elucidate the evolution of crystal structure with temperature. Tests are carried out with a Siemens-Bruker D5000 diffractometer equipped with the Bragg Brentano parafocusing (θ-θ) geometry and an Anton-Paar TTK temperature chamber. Measurements utilize dry nitrogen or nitrogen streams having a particular humidity. The instrument specifications are substantially similar to the Siemens-Bruker D5000 Matic instrument described above (Instrument 1). Temperature is allowed to rise at a rate of 0.05° C./sec. Scans are recorded under the following conditions: a 1.5 to 50.0 degree scan in angle 2θ, 10 to 20 seconds counting time per degree in 2θ. Data are acquired in isotherm mode when the requested temperature is reached.

[7] = heating rate 5° C./min, A, B, H: melting/decomposition, E: loss of water and conversion to Form H, ±3° C.
[8] = sample including Forms A and C, 5° C./min, Form C: conversion to Form A, Form A: melting/decomposition

CC(C)(O)c1ccc2c(c1)/C(=C/CCN1CC[C@](O)(c3ccc(Cl)cc3)C(C)(C)C1)c1cccnc1CO2 [Citrate Salt, citrate salt of (S)-4-(4-Chloro-phenyl)-1-{3-[7-(1-hydroxy-1-methyl-ethyl)-11H-10-oxa-1-aza-dibenzo[a,d]cyclohepten-5-ylidene]-propyl}-3,3-dimethyl-piperidin-4-ol]
Form(s) identified ([1]; Crystallization after dissolution THF, followed by a slow evaporation at ambient temperature and atmospheric pressure): A + D
Form(s) identified ([1]; Crystallization after dissolution at high temperature in THF/water): A + C
Form(s) identified ([1]; Dissolution at ambient temperature in DMSO/water): Amorphous
Form(s) identified ([1]; Dissolution in THF/water and azeotropic distillation (isolation in water)): Amorphous
Form(s) identified ([1]; Dissolution in dichloromethane/methanol, followed by a quick evaporation at ambient temperature and low pressure): Amorphous
Form(s) identified ([1]; Maturation in THF of Forms A and B at ambient temperature): A + C
Form(s) identified ([1]; Maturation in water of the amorphous form at ambient temperature): E + F + G

CC(C)(O)c1ccc2c(c1)/C(=C/CCN1CC[C@](O)(c3ccc(Cl)cc3)C(C)(C)C1)c1cccnc1CO2 [Form B, citrate salt of (S)-4-(4-Chloro-phenyl)-1-{3-[7-(1-hydroxy-1-methyl-ethyl)-11H-10-oxa-1-aza-dibenzo[a,d]cyclohepten-5-ylidene]-propyl}-3,3-dimethyl-piperidin-4-ol]
stability when rinsed with water, XRPD before and after the rinsing [2]: stable to 100% relative humidity
crystal form by XRPD after exposure to a relative humidity of 97.5% [2]: does not change form
TGA weight loss from ambient temperature to about 100° C. ([3]; heating rate 5° C./min): No weight loss is detected
TGA weight loss of the transition ([3]; heating rate 5° C./min): about 27.5 % (w/w)
TGA weight loss transition, interpolated beginning temperature ([3]; heating rate 5° C./min): about 180 °C
TGA weight loss transition, temperature of maximum rate of weight loss ([3]; heating rate 5° C./min): 192 °C
change in moles of water per mole of anhydrous crystal over relative humidity 0% to 90% ([4]; 25° C.): about 0.4 moles of water per mole of anhydrous crystal
change in mass as the relative humidity is changed between 0% and 90% ([4]; 25° C., dry crystal basis, known to within ±0.1%): about 0.9%
XRPD before and after water sorption/desorption cycling ([4]; 25° C.): no structural change
DSC endothermic transition, Tmax ([5]; heating rate 1° C./min): 179 °C
DSC endothermic transition, interpolated beginning temperature ([5]; heating rate 1° C./min): 174 °C
DSC endothermic transition, Tmax [5, 7]: 189 °C
DSC endothermic transition, interpolated beginning temperature [5, 7]: 184 °C

CC(C)(O)c1ccc2c(c1)/C(=C/CCN1CC[C@](O)(c3ccc(Cl)cc3)C(C)(C)C1)c1cccnc1CO2 [Form C, citrate salt of (S)-4-(4-Chloro-phenyl)-1-{3-[7-(1-hydroxy-1-methyl-ethyl)-11H-10-oxa-1-aza-dibenzo[a,d]cyclohepten-5-ylidene]-propyl}-3,3-dimethyl-piperidin-4-ol]
form conversion as the temperature is raised (isothermal XRPD) [6]: conversion of the Form C crystals to Form A
TGA weight loss ([3]; sample including Forms A and C): about 8.22 % (w/w)
TGA weight loss, temperature of maximum rate of weight loss ([3]; sample including Forms A and C): 162 °C
TGA weight loss, interpolated beginning temperature ([3]; sample including Forms A and C, Form C: conversion away from Form C, Form A: decomposition/melting): 157 °C
XRPD before and after water sorption/desorption cycling ([4]; 25° C.): no structural modification
DSC endothermic transition between Form C and Form A, Tmax ([5]; heating rate 20° C./min): 171 °C
DSC endothermic transition between Form C and Form A, interpolated beginning temperature ([5]; heating rate 20° C./min): 165 °C
DSC endothermic transition, Tmax [5, 8]: 166 °C
DSC endothermic transition, interpolated beginning temperature [5, 8]: about 161 °C

CC(C)(O)c1ccc2c(c1)/C(=C/CCN1CC[C@](O)(c3ccc(Cl)cc3)C(C)(C)C1)c1cccnc1CO2 [Form E, citrate salt of (S)-4-(4-Chloro-phenyl)-1-{3-[7-(1-hydroxy-1-methyl-ethyl)-11H-10-oxa-1-aza-dibenzo[a,d]cyclohepten-5-ylidene]-propyl}-3,3-dimethyl-piperidin-4-ol]
form conversion as the temperature is raised (isothermal XRPD) [6]: converts to Form B
loss of stability (lines unique to the form disappear), isothermal XRPD ([6]; sample containing Forms E, F, and G, steps of 10° C.): above 50 °C
TGA weight loss of the transition ([3]; heating rate 5° C./min): 6.14 % (w/w)
TGA weight loss transition, interpolated beginning temperature ([3]; heating rate 5° C./min): 52 °C
TGA weight loss transition, temperature of maximum rate of weight loss ([3]; heating rate 5° C./min): 64 °C
weight change / water uptake between 10% and 90% relative humidity ([4]; 25° C.): about 2.28 % (w/w)
weight gain / water uptake as relative humidity is increased from 0% to 10% ([4]; 25° C.): about 5.13 % (w/w)
behaviour under 10% relative humidity (observed at 0% relative humidity) ([4]; ambient temperatures): fully transforms into form H
XRPD before and after water sorption/desorption cycling ([4]; 25° C.): a structure corresponding with Form H after the cycling
DSC endothermic transition, Tmax [5, 7]: 67 °C
DSC endothermic transition, interpolated beginning temperature [5, 7]: 45 °C
DSC endothermic transition, integrated enthalpy change ([5]; heating rate 5° C./min, transition 2411, conversion of Form E to Form H): 178.3 J/g

CC(C)(O)c1ccc2c(c1)/C(=C/CCN1CC[C@](O)(c3ccc(Cl)cc3)C(C)(C)C1)c1cccnc1CO2 [batch F1]
stability when rinsed with water, XRPD before and after the rinsing [2]: loss of lines of Form F and diminution of lines of Form G, while the lines of Form E grow
crystal form by XRPD after exposure to a relative humidity of 0% ([2]; about one month): a mixture of Forms E and B
crystal form by XRPD after exposure to a relative humidity of 97.5% [2]: loss of lines of Form F and diminution of lines of Form G, while the lines of Form E grow

Source: patent US7960549B2, “Solid forms of a chemokine receptor antagonist and methods of use thereof” (priority 2004, dated 2011)
